Experimental findings from PubChem BioAssay AID2060351 (Molecular Pharmacology Branch, DTP, NCI, 2025) are described below.

Values joined by “and” are separate entries in the source; they are usually repeats but may differ in a detail not shown here. Identical values can stand only once.

In this test the test system is 521955-158-R7-J2-PDC spheroids, viability % test/control. In words: Anticancer human tumor 521955-158-R7-J2-PDC patient-derived pancreatic carcinoma cell line growth inhibition [TAK]. As to conditions: spheroids with HUVEC and MSC; for viability, T/C: stronger effect = lower value. The text has this:
Combinatorial screen of targeted agents with TAK-243 and ipatasertib in multi-cell type tumor spheroids
A high-throughput screen of multi-cell type tumor spheroids was designed to identify active combinations of targeted small molecules and TAK-243 or ipatasertib. Complex spheroids include a stromal component modeled by human endothelial cells (HUVEC) and fibroblasts modeled by human mesenchymal stem cells (MSCs). The concentration ranges selected for each drug and investigational agent were based upon clinically achievable concentrations if the clinical Cmax of the agent was known.
Compounds. The drugs and investigational agents: TAK-243 (785004), ipatasertib (767898), everolimus (733504), selumetinib (741078), bortezomib (756655), trametinib (758246), ixazomib (758254), vemurafenib (761431), dabrafenib (764134), sapanisertib (764658), alpelisib (765974), and copanlisib (816437), were obtained from the National Cancer Institute (NCI) Developmental Therapeutics Program Chemical Repository. The FDA-approved anticancer drug set is available from the NCI Developmental Therapeutics Program. […] The stock solutions were prepared in dimethyl sulfoxide (DMSO, Sigma-Aldrich, St. Louis, MO, cat. D2650) at 800-fold the tested concentration and stored at -70 degrees C prior to their use. All drugs and investigational agents were tested over a range starting from a high concentration at or near the clinical Cmax and decreasing in half-log increments. If the clinical Cmax for an agent had not been determined, the highest concentration tested was 10 microM.
NCI60 Cell Culture. NCI60 cell lines were obtained from the NCI Developmental Therapeutics Program Tumor Repository. For each lot of cells, the Repository performed Applied Biosystems AmpFLSTR Identifiler testing with PCR amplification to confirm consistency with the published Identifier STR profile for each cell line. Cells were kept in continuous culture for no more than 20 passages. The optimal seeding densities for each of the cell lines at each time point assessed were determined prior to performing the concentration response studies. Briefly, the NCI60 human tumor lines were grown as monolayers in RPMI 1640 medium supplemented with 10% FBS and 2 mmol/L L-glutamine.
An additional 2 lines were from the NCI60 cell line panel including melanomas, MALME-3M and SK-MEL-2. Pooled donor human umbilical vein endothelial cells (HUVEC, Lonza, cat. CC-2519) and human mesenchymal stem cells (hMSC, Lonza, cat. PT-2501) were purchased from Lonza (Walkersville, MD).
PDMR cell lines were grown in complete medium (DC medium): Dulbecco's modified Eagle's medium (DMEM)/F12 supplemented with 5% fetal bovine serum (FBS), 2 mM L-glutamine, 100 U/mL penicillin and 100 µg/ml streptomycin, 0.4 µg/ml hydrocortisone, 10 ng/ml epidermal growth factor (EGF) recombinant human protein, 24 µg/mL adenine, and 0.1 mg/mL primocin. During culture from frozen stock vials, PDMR cells were cultured in the same medium containing 10 µM Y-27632 (see Table 3). The PDCs were cultured in complete DMEM/F12 media without 10 microM Y-27632 dihydrochloride for at least two passages prior to the screen. The pooled donor HUVEC and hMSC were cultured in endothelial cell growth medium 2 (PromoCell, Heidelberg, Germany, cat. C-22011) and mesenchymal stem cell growth medium 2 (PromoCell, cat. C-28009), respectively. For all experiments, HUVEC and hMSC were used at passages </=5.
For the pre-screen, cell seeding densities were determined from a titration spanning the range from 5,000 to 313 cells per well. The mct-spheroids including 60% malignant cells, 25% HUVEC and 15% MSC dispensed as a mixture into U-bottom Ultra-Low Attachment 384-well plates (Corning, NY)
High-throughput Drug Combination Screening.
Prior to their inoculation into 384-well plates, malignant cells, HUVEC, and hMSC were removed from T flasks using TrypLE express (Thermo Fisher Scientific, cat. 12605036) and harvested by centrifugation for 5 min at 233 x g. […]
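Note: spheroids exposed to compound for 7 days before readout.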

The IC50 is the point on the concentration scale where inhibition reaches its midpoint. The term viability, T/C denotes the ratio of treated to control. For `CCCS(=O)(=O)Nc1ccc(F)c(C(=O)c2c[nH]c3ncc(-c4ccc(Cl)cc4)cc23)c1F` + CC(C)NCC(C(=O)N1CCN(c2ncnc3c2C(C)CC3O)CC1)c1ccc(Cl)cc1, the IC50 (curve of first compound, second compound 0.3 µM) is above 100 µM; the IC50 (curve of first compound, second compound 0.949 µM) is above 100 µM; the IC50 (curve of first compound, second compound 3 µM) was above 100 µM; the half-maximal inhibitory concentration (IC50) (curve of first compound, second compound 9.49 µM) was 21.8 µM; the IC50 (curve of first compound, second compound 30 µM) came out at 6.43 µM. For the same molecule, the viability, T/C is, setting by setting: (second compound 0.3 µM, first compound 0.316 µM) 85.9%; (second compound 0.3 µM, first compound 1 µM) 83.5%; (second compound 0.3 µM, first compound 3.16 µM) 85.8%; (second compound 0.3 µM, first compound 10 µM) 108%; (second compound 0.3 µM, first compound 31.6 µM) 69.5%; (second compound 0.3 µM, first compound 100 µM) 81.8%. Besides, the viability, T/C is, setting by setting: (second compound 0.949 µM, first compound 0.316 µM) 84.4%; (second compound 0.949 µM, first compound 1 µM) 94.1%; (second compound 0.949 µM, first compound 3.16 µM) 90.9%; (second compound 0.949 µM, first compound 10 µM) 107%; (second compound 0.949 µM, first compound 31.6 µM) 53.6%; (second compound 0.949 µM, first compound 100 µM) 87%. Further, the viability, T/C is 82.9% (second compound 3 µM, first compound 0.316 µM); 89.1% (second compound 3 µM, first compound 1 µM); 105% (second compound 3 µM, first compound 3.16 µM); 88.5% (second compound 3 µM, first compound 10 µM); 54% (second compound 3 µM, first compound 31.6 µM); 50.5% (second compound 3 µM, first compound 100 µM). Also, the viability, T/C is, setting by setting: (second compound 9.49 µM, first compound 0.316 µM) 85.4%; (second compound 9.49 µM, first compound 1 µM) 107%; (second compound 9.49 µM, first compound 3.16 µM) 99.8%; (second compound 9.49 µM, first compound 10 µM) 73.7%; (second compound 9.49 µM, first compound 31.6 µM) 39.9%; (second compound 9.49 µM, first compound 100 µM) 32.4%. The viability, T/C runs as follows: (second compound 30 µM, first compound 0.316 µM) 107%; (second compound 30 µM, first compound 1 µM) 119%; (second compound 30 µM, first compound 3.16 µM) 127%; (second compound 30 µM, first compound 10 µM) 5.6%; (second compound 30 µM, first compound 31.6 µM) 5.46%; (second compound 30 µM, first compound 100 µM) 13.1%.

On to `CC(C)CC(NC(=O)C(Cc1ccccc1)NC(=O)c1cnccn1)B(O)O` (configuration not stated), for which the viability, T/C was 94% and 103% (compound 31.6 pM); 82.3% and 99.8% (compound 0.0001 µM); 96.1% and 93.2% (compound 0.000316 µM); 88.4% and 100% (compound 0.001 µM); 103% and 93% (compound 0.00316 µM); 4.87% and 2.64% (compound 0.01 µM). Besides, the 50% inhibitory concentration (IC50) (curve of compound) was 0.00554 µM and 0.00547 µM.
